Experimental data from US7119229B2 (priority 2001, dated 2006).
Where two headings read alike, the source gives them in different places.

Key:
[1] = tested on: MCF-7 (human breast adenomatous tumor); assay: SRB cytotoxicity assay, MCF7; type: cell-based; settings: MCF7, 72 h, read-out: ED50 MCF7
Experimental: (§1) Human tumor cells, including MCF-7 (human breast adenomatous tumor), MCF-7/DOX (adriamycin resistant cell strain), MRS-SA (human uterine sarcoma), MES-SA/DX5 (adriamycin resistant cell strain), A 549 (human non-small cell lung), SKOV-3 (human ovarian), SKMEL-2 (human melanoma), XF-498 (human CNS), HCT-15 (human colon) were incubated at 37° C. in the presence of 5% CO2 using a DMEM culture medium. The respective cells were seeded into each well of 96-well plates at a concentration of 2×10^3˜5×10^3 cells/well. […] Each cell line of the resultant plates was fixed with trichloroacetic acid (TCA), stained with 0.4% SRB solution and rinsed with 1% acetic acid. Thereafter, the dye was dissolved in 10 mM Tris base to measure the optical density (OD) at 520 nm.

[2] = tested on: MCF-7/DOX (adriamycin resistant cell strain); assay: SRB cytotoxicity assay, MCF-7/DOX; type: cell-based; settings: Homo sapiens, MCF7-DOX, 72 h, read-out: ED50 MCF-7/DOX
Experimental: as §1

[3] = tested on: MES-SA/DX5 (adriamycin resistant cell strain); assay: SRB cytotoxicity assay, MES-SA/DX5; type: cell-based; settings: Homo sapiens, MES-SA/Dx5, 72 h, read-out: ED50 MES-SA/DX5
Experimental: as §1

[4] = tested on: A 549 (human non-small cell lung); assay: SRB cytotoxicity assay, A549; type: cell-based; settings: A549, 72 h, read-out: ED50 A549
Experimental: as §1

SKOV-3 (human ovarian) = assay: SRB cytotoxicity assay, SK-OV-3; type: cell-based; settings: 72 hours, read-out: ED50 SK-OV-3
Experimental: as §1

SKMEL-2 (human melanoma) = assay: SRB cytotoxicity assay, SK-MEL-2; type: cell-based; settings: SK-MEL-2, 72 h, read-out: ED50 SK-MEL-2
Experimental: as §1

XF-498 (human CNS) = assay: SRB cytotoxicity assay, XF498; type: cell-based; settings: 72 hours, read-out: ED50 XF498
Experimental: as §1

HCT-15 (human colon) = assay: SRB cytotoxicity assay, HCT15; type: cell-based; settings: HCT-15, 72 h, read-out: ED50 HCT15
Experimental: as §1

[5] = tested on: BALB/c mouse spleen cell (responding) and DBA/2 mouse spleen cell (stimulating); type: cell-based; settings: MLR, FIG. 1
Experimental: MLR tests were carried out to determine the immunosuppressive effect of an immunosuppressive candidate material. When a responding cell (BALB/c mouse spleen cell) and a stimulating cell (DBA/2 mouse spleen cell) were cultured separately, the cells grew little. On the contrary, when the cells were simultaneously cultured, the cells were proliferated due to induction of an antigen-antibody reaction. The proliferated cells were treated with the immunosuppressive candidate material for measurement of the proliferation inhibitory extent.
After culturing for 72 hours at a CO2 incubator, a 20 μl MTS solution was added to each well, followed by further culturing for 2 to 4 hours and measuring OD at […] by using ELISA.

[6] = tested on: BALB/c mouse spleen cells, B cells activated with lipopolysaccharide (LPS); assay: Immunosuppressive effect test using BALB/c mouse spleen cells, LPS (B cells); type: cell-based; settings: 20 μg/ml lipopolysaccharide, 72 hours, MTS, FIGS. 2 and 3
Experimental: (§2) This test was carried out to determine the immunosuppressive effect of an immunosuppressive candidate material by checking anti-proliferation of T cells and B cells. To identify the proliferation inhibitory extent, responding cells (BALB/c mouse spleen cells) were treated with an immunosuppressive candidate material, lipopolysaccharide (LPS) as a B cell activator and concanvalin A (ConA) as a T cell activator. It is known that the responding cells treated with LPS induce proliferation of B cells and those treated with ConA induce proliferation of T cells.
(§3) Responding cells (BALB/c mouse spleen cells) were seeded into each well of 96-well plates at a concentration of 2×10^5 cells/well. […] After culturing for 72 hours at a CO2 incubator, a 20 μl MTS solution was added to each well, followed by further culturing for 2 to 4 hours and measuring OD at 490 nm using ELISA.

[7] = tested on: BALB/c mouse spleen cells, T cells activated with concanvalin A (ConA); assay: Immunosuppressive effect test using BALB/c mouse spleen cells, ConA (T cells); type: cell-based; settings: 2 μg/ml of ConA, 72 hours, MTS, FIGS. 2 and 3
Experimental: as §2, §3

TA98 = tested on: TA98
Experimental: (§4) This assay is carried out to test mutagenicity of chemical substances using histidine auxotrophic strains that are one of Salmonella Typhimurium mutants. […] When various mutagens are added to the culture medium, only revertants generated by reverse mutation survive.
(§5) Ames test was carried out using […]. […] After incubation, the number of revertant colonies was counted. 3 plates were prepared for each test and the average was calculated.

TA1537 = assay: Reverse mutation assay (Ames test), TA1537
Experimental: as §4, §5

[8] = tested on: WP2 uvrA strains (tryptophan auxotrophic strains); assay: Reverse mutation assay (Ames test), E. coli WP2 uvrA
Experimental: as §4, §5

ICR mice [9] = assay: Oral administration toxicity assay; settings: for Days for the test (death) Total: deaths/mice
ICR mice [10] = assay: Acute (intravenous administration) toxicity assay; settings: for Days for the test (death) Total: deaths/mice

## COc1cc2c(c(OC)c1OC)-c1ccc(OC)c(=O)cc1[C@@H](NC(=O)c1cccc(CO[N+](=O)[O-])c1)CC2 [Compound 6, 3-nitrooxymethyl-N-(1,2,3,10-tetramethoxy-9-oxo-5,6,7,9-tetrahydro-benzo[a]heptarene-7-yl)-benzamide]
[1]
  EC50: 0.02 nM
[2]
  EC50: 205 nM
[3]
  EC50: 773 nM
[4]
  EC50: 0.1 nM
SKOV-3 (human ovarian)
  EC50: 0.2 nM
SKMEL-2 (human melanoma)
  EC50: 0.1 nM
XF-498 (human CNS)
  EC50: 0.1 nM
HCT-15 (human colon)
  EC50: 0.1 nM
[5]
  immunosuppressive effect: good immunosuppressive effect
[6]
  anti-proliferation of B cells: remarkable anti-proliferous effect
[7]
  anti-proliferation of T cells: remarkable anti-proliferous effect
TA98; TA98, 317.5 μg/Plate
  Colony/Plate S-9 Mixture (+): 32 Colony/Plate
  Colony/Plate S-9 Mixture (−): 21 Colony/Plate
TA98; TA98, 625 μg/Plate
  Colony/Plate S-9 Mixture (+): 29 Colony/Plate
  Colony/Plate S-9 Mixture (−): 32 Colony/Plate
TA98; TA98, 1250 μg/Plate
  Colony/Plate S-9 Mixture (+): 33 Colony/Plate
  Colony/Plate S-9 Mixture (−): 24 Colony/Plate
TA98; TA98, 2500 μg/Plate
  Colony/Plate S-9 Mixture (+): 22 Colony/Plate
  Colony/Plate S-9 Mixture (−): 22 Colony/Plate
TA98; TA98, 5000 μg/Plate
  Colony/Plate S-9 Mixture (+): 23 Colony/Plate
  Colony/Plate S-9 Mixture (−): 19 Colony/Plate
TA1537; TA1537, 317.5 μg/Plate
  Colony/Plate S-9 Mixture (+): 11 Colony/Plate
  Colony/Plate S-9 Mixture (−): 8 Colony/Plate
TA1537; TA1537, 625 μg/Plate
  Colony/Plate S-9 Mixture (+): 16 Colony/Plate
  Colony/Plate S-9 Mixture (−): 10 Colony/Plate
TA1537; TA1537, 1250 μg/Plate
  Colony/Plate S-9 Mixture (+): 13 Colony/Plate
  Colony/Plate S-9 Mixture (−): 16 Colony/Plate
TA1537; TA1537, 2500 μg/Plate
  Colony/Plate S-9 Mixture (+): 17 Colony/Plate
  Colony/Plate S-9 Mixture (−): 11 Colony/Plate
TA1537; TA1537, 5000 μg/Plate
  Colony/Plate S-9 Mixture (+): 14 Colony/Plate
  Colony/Plate S-9 Mixture (−): 7 Colony/Plate
[8]; 317.5 μg/Plate
  Colony/Plate S-9 Mixture (+): 12 Colony/Plate
  Colony/Plate S-9 Mixture (−): 16 Colony/Plate
[8]; 625 μg/Plate
  Colony/Plate S-9 Mixture (+): 12 Colony/Plate
  Colony/Plate S-9 Mixture (−): 9 Colony/Plate
[8]; 1250 μg/Plate
  Colony/Plate S-9 Mixture (+): 12 Colony/Plate
  Colony/Plate S-9 Mixture (−): 10 Colony/Plate
[8]; 2500 μg/Plate
  Colony/Plate S-9 Mixture (+): 9 Colony/Plate
  Colony/Plate S-9 Mixture (−): 8 Colony/Plate
[8]; 5000 μg/Plate
  Colony/Plate S-9 Mixture (+): 13 Colony/Plate
  Colony/Plate S-9 Mixture (−): 11 Colony/Plate
ICR mice [9]; 2 mg/kg
  Days for the test (death) Total: 0/5
ICR mice [9]; 5 mg/kg, day 4
  Days for the Test (death) 4: 1
ICR mice [9]; 5 mg/kg
  Days for the test (death) Total: 1/5
ICR mice [9]; 10 mg/kg, day 2
  Days for the test (death) 2: 1
ICR mice [9]; 10 mg/kg, day 3
  Days for the Test (death) 3: 1
ICR mice [9]; 10 mg/kg
  Days for the test (death) Total: 2/5
ICR mice [10]; 5 mg/kg
  Days for the test (death) Total: 0/5
ICR mice [10]; 10 mg/kg
  Days for the test (death) Total: 0/5
ICR mice [10]; 25 mg/kg
  Days for the test (death) Total: 0/2
ICR mice [10]; 50 mg/kg, day 1
  Days for the test (death) 1: 3
ICR mice [10]; 50 mg/kg
  Days for the test (death) Total: 3/3
